Assay results: patent US20260232684A1, “FLT3 INHIBITORS AND METHODS OF USING THE SAME” (BIOVENTURES, LLC, priority 2023, published 2026)

Columns and labels:
[1] = tested on: normal donor bone marrow mononuclear cells (BM-MNC); test: Colony forming unit assay of normal bone marrow; settings: for impact on CFU-G counts/growth: equivalent multiples of Molm14 IC50, 14 days, three healthy donors
Procedure: FIG. 2. […] Normal bone marrow mononuclear cells (BM-MNC) were purchased from StemCell Technologies. 30,000 cells were plated in methylcellulose with increasing concentrations of either gilteritinib, 1, or 2. Blast forming unit-erythroid (BFU-E) and colony forming unit-granulocyte (CFU-G) were counted after 14 days incubation. Assay was completed in triplicate with three independent blood donors. Data shown is cumulated from all independent experiments. Error bars show one standard deviation and p values compared to control were calculated using a Student's t-test. NS indicates an insignificant p value, * indicates p value≤0.05, ** indicates p value≤0.01, *** indicates p value≤0.001, **** indicates p value≤0.0001
Bone marrow mononuclear cells (BM-MNC) of healthy donors (n=3) were purchased from StemCell Technologies (Vancouver, Canada). Cells were plated in a 35 mm dish in triplicate with methylcellulose medium at a concentration previously determined to form approximately 100 total colonies, usually 30,000 cells/mL and containing the appropriate amount of drug. Dishes were incubated for 14-15 days and visually assessed for erythrocyte burst-forming units and granulocyte-macrophage colony-forming units.

[2] = tested on: TKI-naïve primary AML patient samples expressing FLT3-ITD; test: Short-term liquid culture growth inhibition of primary AML samples; format: cell-based, human; settings: 100 nM, up to 7 days, CellTiter GLO, five patient samples
Procedure: FIG. 11. Activity of compounds against primary FLT3-ITD AML samples in short term liquid culture assays. […] Plates were incubated with drug for 0, 1, 2, 3, 5 or 7 days. FLT3 mutation is noted for each patient in parentheses. Cell viability was analyzed through CellTiter GLO.
The compounds were further evaluated for activity against TKI-naïve primary AML patient samples expressing FLT3-ITD in short-term liquid culture growth inhibition assays (24).

[3] = tested on: NCI-60 cell line panel (no FLT3 mutation); test: NCI-60 cell line panel; format: cell-based, human; settings: for cytotoxic activity in NCI-60 panel, in words: compound 1: 30 μM single dose, compound 2: 5-dose; for antiproliferative effects in NCI-60 panel, in words: higher concentrations
Procedure: FIG. 12. Activity of compound 1 against the NCI-60 cell line panel. Percentage growth of 1 in the 30 μM single dose experiment within the NCI-60 cell line panel. No cell line within the panel harbors a FLT3 mutation.
FIG. 13. Activity of compound 2 against the NCI-60 cell line panel. Growth inhibition curves of 2 in the 5-dose GIso experiment within the NCI-60 cell line panel. No cell line within the panel harbors a FLT3 mutation.
Myelosuppression represents a critical limitation of current FLT3 TKIs. To assess the selectivity profiles, KINOMEscan screening was performed for 1, 2, and gilteritinib at 20× the Molm14 IC50 concentration of each compound (FIG. 2A).

[4] = tested on: Ba/F3 cells transduced with mutagenized FLT3-ITD; test: Saturation mutagenesis resistance selection (XL1-Red mutagenized FLT3-ITD); format: cell-based; settings: Ba/F3 cells with FLT3-ITD mutant isoforms (FIG. 10)
Excerpt: FIG. 10. (A) Schematic depicting the saturation mutagenesis experimental design and the range of concentrations for compound 1 and compound 2 to select for resistant cells; (B) Population doublings of XL1-Red-mutagenized FLT3-ITD plasmid-transduced Ba/F3 cells in escalating concentrations of compound 1 and compound 2. Arrows indicate the timepoint of passage when a concentration of 0.1 million cells/mL was achieved; (C) Western blot analysis of lysates collected from transduced Ba/F3 cells cultured in (lane 1) vehicle; (lane 2) 120 nM of compound 1; (lane 3) 120n M of compound 2 (lane 4) Ba/F3 cells transduced with MSCVpuro; (lane M) size marker. […] Left table: identity of mutations detected at escalating concentrations of compounds 1 and 2. Right table: IC50 values of compounds 1 and 2 in Ba/F3 cells transformed to growth factor independence with FLT3-ITD and various mutant isoforms.
To determine if these compounds are potentially vulnerable to novel secondary mutations in FLT3-ITD, Ba/F3 cells were transduced with retrovirus generated using MSCVpuro/FLT3-ITD plasmid purified from the XL1-Red bacterial strain, which is deficient in DNA mismatch repair and introduces random point mutations. This assay has successfully identified point mutations for other FLT3 TKIs that were subsequently validated in samples obtained from patients with acquired resistance. […]

[5] = tested on: FLT3 phosphorylation in Molm14 D835Y cells; test: Immunoblotting of phospho-FLT3 and downstream signaling, Molm14 D835Y; format: cell-based, human; settings: 2 hours, Western blot
Procedure: FIG. 1. Activity of compounds 1 and 2 against parental Molm14 cells harboring secondary kinase domain mutations associated with clinical resistance to active FLT3 TKIs. […] Each point represents the calculated IC50 from an independent experiment completed in triplicate. Cells were treated with inhibitor at increasing log doses (0.1 nM-10 μM) for 48 hours. Cell viability was analyzed through CellTiter GLO. […] Cells were exposed to increasing amounts of each drug for 2 hours. GAPDH1 represents loading control for phospho-ERK and ERK blots. GAPDH2 represents loading control for phosphor-STAT5, STAT5, phospho-S6 and S6. Each experiment was completed in triplicate. Representative images are shown.
Exponentially growing Molm-14 or Ba/F3 cells were plated with RPMI 1640+10% (vol/vol) FBS with the indicated amount of drug. Following 120 minute incubation at 37° C., cells were washed in PBS and lysed in HEPES lysis buffer supplemented with protease and phosphatase inhibitors and processed as previously described (39). Immunoblotting was performed using anti-phospho-tyrosine 4G10 antibody (Millipore Sigma) and anti-FLT3 antibody (Cell Signaling Technology) following immunoprecipitation with anti-FLT3 antibody from 500 μg of total protein. Immunoblotting of ERK, STAT5, S6 and GAPDH was performed with anti-phospho-ERK, anti-ERK, anti-phospho-STAT5, anti-STAT5, anti-phospho-S6, anti-S6 and anti-GAPDH antibody (Cell Signaling Technology)

[6] = tested on: Molm-14 F691L cells stably expressing firefly luciferase; test: Circulating tumor model, Molm14 F691L luciferase; format: in vivo
Procedure: FIG. 7. […] Molm14 F691L stably expressing FLuc9 were engrafted in mice through tail vein injection. Mice were imaged once every three days.
Molm-14 F691L cells stably expressing firefly luciferase were injected into the tail vein of NSG mice and tumor growth was monitored through bioluminescence.

FLT3 D835Y = FLT3 D835Y (Homo sapiens, UniProt P36888, D835Y); test: Enzyme kinetic analysis (5-FAM microfluidic assay), FLT3 D835Y; format: biochemical; settings: variable ATP and inhibitor concentrations
Procedure: FIG. 14. Enzyme kinetic analysis of compound 1 and 2 against FLT3 and FLT3 D835Y. The 5-FAM labeled microfluidic assay was utilized and all the activities were measured using Caliper EZ Reader II with a 12-sipper chip. In the presence of variable concentrations of compound 1 or 2, phosphorylation activities of FLT3 and FLT3 D835Y were measured at different level of ATP within certain time durations.
To further assess putative binding modes of compounds 1 and 2, enzyme kinetic analyses were performed.

SMILES	impact on BFU-E counts/growth [1]	impact on CFU-G counts/growth [1]	activity against primary FLT3-ITD AML samples, in words [2]	cytotoxic activity in NCI-60 panel, in words [3]	antiproliferative effects in NCI-60 panel, in words [3]	resistance conferred by secondary FLT3 mutations that confer relative resistance to other FLT3 TKIs [4]	inhibition of FLT3 phosphorylation and downstream targets, in words [5]	tumor growth compared to gilteritinib ([6]; both doses of compound 2 (5 or 10 mg/kg) vs gilteritinib 33 mg/kg)	tumor growth (bioluminescence), in words ([6]; daily oral gavage 14 days, compound 2 5 or 10 mg/kg, gilteritinib 33 mg/kg, vs vehicle control)	binding mode / inhibition model from enzyme kinetics (FLT3 D835Y)	concentration that fully ablated FLT3 phosphorylation [5] [nM]
CN(C)CCNc1ncc(F)c(-c2cnc3cc(-c4cnn(C)c4)ccn23)n1 [Compound 1]	no significant impact on BFU-E growth at any concentration	less impact on CFU-G growth than gilteritinib	activity comparable to quizartinib and gilteritinib in all samples	neither compound displayed any significant cytototoxic activity	antiproliferative effects were noted at higher concentrations	none of these were capable of conferring significant resistance	potent inhibition of phosphorylation	–	–	–	–
CC(C)(C)c1cc(NC(=O)Cc2ccc(-c3cnc4cc(-c5cnn(CCN6CCOCC6)c5)ccc4n3)cc2)no1 [Compound 2, N-(5-(tert-butyl)isoxazol-3-yl)-2-(4-(6-(1-(2-morpholinoethyl)-1H-pyrazol-4-yl)quinoxalin-2-yl)phenyl) acetamide]	no significant impact on BFU-E growth at any concentration	less impact on CFU-G growth than gilteritinib	most potent activity of all the compounds	neither compound displayed any significant cytototoxic activity	antiproliferative effects were noted at higher concentrations	none of these were capable of conferring significant resistance	somewhat decreased ability to inhibit phosphorylation	statistically significant difference compared to gilteritinib	nearly halt all tumor growth	intermediate conformation between type 1 and type 2	50
